# Experimental data as given in article PMC6891541, “α-Glucosidase and Pancreatic Lipase Inhibitory Activities of Diterpenes from Indian Mango Ginger (Curcuma amada Roxb.) and Its Derivatives” (Molecules, 2019).
# Experiments:
# [1] = tested on: cancer cell lines such as MCF-7, KB and A549; design: method as in PMID 21629182; conditions: cited from earlier work
# porcine pancreas lipase = molecular target: T1, porcine pancreas lipase (Sus scrofa, UniProt P00591); assay: pancreatic lipase inhibition, 4-methylumbelliferyl oleate, HPLC fluorescence detection of 4-MU; format: biochemical; conditions: for IC50: porcine pancreas lipase, 4-methylumbelliferyl oleate substrate, read-out: IC Lipase
# T1 construct: from tissue; host or cells: porcine pancreas
# T1 sequence (P00591 1-450): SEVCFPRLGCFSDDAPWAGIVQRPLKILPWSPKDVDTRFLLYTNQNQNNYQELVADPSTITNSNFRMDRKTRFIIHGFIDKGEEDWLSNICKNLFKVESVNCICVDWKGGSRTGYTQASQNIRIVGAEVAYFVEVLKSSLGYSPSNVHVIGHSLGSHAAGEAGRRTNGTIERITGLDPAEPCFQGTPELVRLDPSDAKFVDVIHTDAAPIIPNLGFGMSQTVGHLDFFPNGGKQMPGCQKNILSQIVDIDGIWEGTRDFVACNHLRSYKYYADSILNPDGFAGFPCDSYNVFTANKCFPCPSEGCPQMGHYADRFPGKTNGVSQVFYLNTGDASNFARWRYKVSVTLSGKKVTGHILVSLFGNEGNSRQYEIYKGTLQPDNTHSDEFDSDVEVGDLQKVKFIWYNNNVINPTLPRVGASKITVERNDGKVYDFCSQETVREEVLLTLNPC
# Procedure: For pancreatic lipase inhibitory enzymatic assays, a slightly modified method from that described in a previous paper was used. […] The test sample solution (50 µL) was added to 50 unit/mL of porcine pancreas lipase suspension (50 µL). […] The enzymatic reaction was carried out at 37 °C for 120 min and the reaction was terminated by the addition of citrate buffer (200 µL). After that, the intensity of fluorescent enzymatic product 4-MU was measured by HPLC with fluorescence detection. […] The inhibition percentage was calculated using Equation (2):Inhibition% = [Area (test sample) − Area (sample blank)/Area (control)] × 100(2)
# Tetrahydrolipstatin was used as a positive control (Figure 5 and Figure 6).
# [2] = molecular target: rat intestinal α-glucosidase; assay: α-glucosidase inhibition, rat intestinal acetone powder, pNPG hydrolysis; format: biochemical; conditions: for IC50: pNPG substrate, read-out: IC α-Glucosidase; for α-glucosidase inhibitory activity (in words): rat intestinal α-glucosidase
# Procedure: The α-glucosidase activity was calculated by measuring the amount of p-nitrophenol hydrolyzed from pNPG by α-glucosidase. Tested enzyme was prepared using α-glucosidase included in commercial rat intestinal acetone powder (Sigma-Aldrich). […] Sonication was performed 20 times each for durations of 10 s. After centrifugation at 7000× g for 15 min at 4 °C, the supernatant was separated from the pellet. The supernatant was diluted two-fold with 0.1 M phosphate buffer at pH 6.9. The test sample was dissolved in DMSO and then diluted in the same volume of 0.1 M phosphate buffer. The test sample solution (10 µL) was added to a crude enzyme suspension (40 µL). The solution was preincubated at 37 °C for 10 min, then 2.5 mM of pNPG dissolved in 0.1 M phosphate buffer (50 µL) was added to the reaction mixture as the substrate. The enzymatic reaction was carried out at 37 °C for 30 min and the reaction was terminated by the addition of 0.1 M Na2CO3 aq. (900 µL). The absorbance at 405 nm was determined. […] The acarbose was used as a positive control (Figure 4).
# human 5-lipoxygenase = conditions: cited from earlier work
# Hep G2 cells = tested on: Hep G2 cells; design: method as in PMID 30034597; conditions: cited from earlier work
# COX2 = tested on: COX2; design: method as in doi:10.1016/j.foodchem.2010.06.064; conditions: cited from earlier work
# α-glucosidase = tested on: α-glucosidase; design: method as in PMID 18179176; conditions: cited from earlier work
# [3] = α-glucosidase from rat intestine acetone powder
compound,measurement,setting,value
"C=C1CC[C@H]2C(C)(C)CCC[C@]2(C)[C@H]1CC=C(C=O)CC(=O)O (stereo in doubt) [Compound 8, Zerumin A]",cytotoxicity against cancer cell lines (in words),[1],strong cytotoxicity
same,IC50,porcine pancreas lipase,73.4 µM
"C[C@H]1O[C@H](O[C@H]2[C@H](O)[C@@H](O)[C@@H](O[C@H]3[C@H](O)[C@@H](O)C(O)O[C@@H]3CO)O[C@@H]2CO)[C@H](O)[C@@H](O)[C@@H]1N[C@H]1C=C(CO)[C@@H](O)[C@H](O)[C@H]1O (stereo partly drawn) [Acarbose, acarbose, reference compound]",IC50 α-glucosidase,[2]; [3],247 ppm
same,IC50,[2]; [3],380 µM
"C=C1CCC2C(C)(C)CCC[C@]2(C)[C@H]1C/C=C(/C=O)CC=O (stereo partly drawn) [Compound 1, (E)-Labda-8(17),12-diene-15,16-dial]",human 5-lipoxygenase inhibition (in words),human 5-lipoxygenase,inhibited human 5-lipoxygenase
same,α-glucosidase inhibitory activity (in words),[2],strongest rat intestinal α-glucosidase inhibitory activity
same,IC50,[2]; [3],8740 µM
same,cytotoxicity in Hep G2 cells (in words),Hep G2 cells,without cytotoxicity
same,cytotoxicity against cancer cell lines (in words),[1],strong cytotoxicity
same,inhibition of COX2 compared with COX1 (in words),COX2,greater inhibition of COX2 than COX1
C=C1CCC2C(C)(C)CCCC2(C)C1C=CC(C)=O (stereo not drawn) [Compound 2],α-glucosidase inhibitory activity (in words),[2],strong α-glucosidase inhibition
same,IC50,[2]; [3],17500 µM
same,cytotoxicity against cancer cell lines (in words),[1],did not show cytotoxicity
same,IC50,porcine pancreas lipase,14.8 µM
"C=C1CCC2C(C)(C)CCC[C@]2(C)[C@H]1C/C=C(/CO)CCO (stereo partly drawn) [Compound 4, (E)-Labda-8(17),12-diene-15,16-diol]",α-glucosidase inhibitory activity (in words),[2],strong α-glucosidase inhibition
same,IC50,[2]; [3],11600 µM
same,IC50,porcine pancreas lipase,258 µM
"C=C1CCC2C(C)(C)CCC[C@]2(C)[C@H]1C/C=C(\CCOC(C)=O)COC(C)=O (stereo partly drawn) [Compound 5, 15,16-Diacetoxyl-(E)-labda-8(17),12-diene]",IC50,porcine pancreas lipase,111 µM
"C=C1CCC2C(C)(C)CCC[C@]2(C)[C@H]1C/C=C(/CO)CCOC(C)=O (stereo partly drawn) [Compound 6, 15-Acetoxy-(E)-labda-8(17),12-diene-16-ol]",IC50,porcine pancreas lipase,102 µM
"C=C1CCC2C(C)(C)CCC[C@]2(C)[C@H]1C/C=C(\CCO)COC(C)=O (stereo partly drawn) [Compound 7, 16-Acetoxy-(E)-labda-8(17),12-diene-15-ol]",IC50,porcine pancreas lipase,222 µM
"C=C1CCC2C(C)(C)CCC[C@]2(C)[C@H]1C/C=C(\CC(=O)O)C(=O)O (stereo partly drawn) [Compound 9, (E)-Labda-8(17),12-diene-15,16-dicarboxylic acid]",IC50,porcine pancreas lipase,76.8 µM
"C=C1CCC2C(C)(C)CCC[C@]2(C)[C@H]1C/C=C(\CC(=O)OC)C(=O)OC (stereo partly drawn) [Compound 10, (E)-Labda-8(17),12-diene-15,16-dimethylester]",IC50,porcine pancreas lipase,119 µM
"CCCCCCCCCCC[C@@H](C[C@@H]1OC(=O)[C@H]1CCCCCC)OC(=O)[C@H](CC(C)C)NC=O [Tetrahydrolipstatin, reference compound]",Lipase inhibition,"porcine pancreas lipase; at 5.0 Nm, positive control",94% (5.0 Nm)
"CC1(C)CCC[C@]2(C)[C@@H](C=O)C(C=O)=CC[C@@H]12 [polygodial, reference compound]",human 5-lipoxygenase inhibition (in words),human 5-lipoxygenase,inhibited human 5-lipoxygenase
same,α-glucosidase inhibition (in words),α-glucosidase,did not show α-glucosidase inhibition
Albicanal [Compound 3],α-glucosidase inhibitory activity (in words),[2],did not show any such activity
same,IC50,porcine pancreas lipase,666 µM
